# Source: patent US20100317729A1 (GW Pharma Limited, priority 2007, published 2010)
# Columns and labels:
# CB1 receptor [1] = target: T1, CB1 receptor (Mus musculus, UniProt P47746); assay: [35S]GTPγS binding assay, mouse brain membranes; type: biochemical
# T1 construct: membranes prepared from healthy brain tissue, which is densely populated with CB1 but not CB2 receptors; from tissue; host or cells: mouse brain membranes
# Description: (§1) Nonspecific binding was measured in the presence of 30 μM GTPγS.
# The concentrations of [^35S]GTPγS and GDP present in the assay varied depending on whether the assay was conducted with mouse brain or transfected cell membranes.
# Additionally, mouse brain membranes were preincubated for 30 minutes at 30° C. with 0.5 U ml^−1 adenosine deaminase to remove endogenous adenosine.
# (§2) The apparent dissociation constant (KB) values for antagonism of agonists by THCV in the vas deferens or [^35S]GTPγS binding assay have been calculated by Schild analysis from the concentration ratio, defined as the concentration of an agonist that elicits a response of a particular size in the presence of a competitive reversible antagonist at a concentration, B, divided by the concentration of the same agonist that produces an identical response in the absence of the antagonist.
# (§3) Mean values have been compared using Student's two-tailed t-test for unpaired data or one-way analysis of variance (ANOVA) followed by Dunnett's test (GraphPad Prism). A P-value <0.05 was considered to be significant.
# hCB2 receptors = target: T2, hCB2 receptors (Homo sapiens, UniProt P34972); assay: [35S]GTPγS binding assay, CHO-hCB2 cell membranes; type: biochemical; conditions: for KB-value times less than Ki-value: CHO cell membranes, KB ([35S]GTPγS) versus Ki ([3H]CP55940 displacement)
# T2 construct: expressed in transfected cells; host or cells: CHO cells
# T2 sequence (P34972 whole entry): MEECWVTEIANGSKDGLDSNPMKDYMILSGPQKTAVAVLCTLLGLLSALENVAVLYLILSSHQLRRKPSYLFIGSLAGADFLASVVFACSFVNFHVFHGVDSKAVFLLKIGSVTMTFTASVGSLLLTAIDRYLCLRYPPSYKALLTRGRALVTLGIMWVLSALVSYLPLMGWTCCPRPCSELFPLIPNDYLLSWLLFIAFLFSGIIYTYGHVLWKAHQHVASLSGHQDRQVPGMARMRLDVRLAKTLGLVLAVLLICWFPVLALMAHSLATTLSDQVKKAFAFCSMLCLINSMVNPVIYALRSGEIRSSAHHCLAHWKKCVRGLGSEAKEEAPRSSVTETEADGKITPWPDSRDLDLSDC
# Description: as §1
# The concentrations of [^35S]GTPγS and GDP present in the assay varied depending on whether the assay was conducted with mouse brain or transfected cell membranes. When the assay was conducted with mouse brain membranes, 0.1 nM [^35S]GTPγS and 30 μM GDP were present, whereas the corresponding concentrations present when the assay was conducted with transfected cell membranes were 1 nM and 320 μM respectively.
# Additionally, mouse brain membranes were preincubated for 30 minutes at 30° C. with 0.5 U ml^−1 adenosine deaminase to remove endogenous adenosine. Agonists and antagonists were stored as a stock solution of 1 or 10 mM in DMSO, the vehicle concentration in all assay tubes being 0.11% DMSO.
# Net agonist-stimulated [^35S]GTPγS binding values were calculated by subtracting basal binding values (obtained in the absence of agonist) from agonist-stimulated values (obtained in the presence of agonist) as detailed elsewhere (Ross et al., 1999a).
# as §2, §3
# [2] = clinical study, at least some of the patients; cited from earlier work
# vas deferens = assay: Electrically-evoked twitch response of the vas deferens; conditions: at concentrations that antagonise cannabinoids
# Description: Inhibition of the electrically-evoked twitch response of the vas deferens has been expressed in percentage terms and this has been calculated by comparing the amplitude of the twitch response after each addition of a twitch inhibitor with its amplitude immediately before the first addition of the inhibitor. Contractile responses to phenylephrine and β,γ-methylene-ATP have been expressed as increases in tension (g).
# as §2
# CB1 receptor [3] = target: T1, CB1 receptor; assay: Radioligand displacement assay, mouse brain membranes; type: binding
# Description: Binding was initiated by the addition of either the brain membranes (33 μg protein per tube) or the transfected hCB2 cells (25 μg protein per tube).
# All assays were performed at 37° C. for 60 min before termination by addition of ice-cold wash buffer (50 mM Tris buffer, 1 mg ml^−1 bovine serum albumin, pH 7.4) and vacuum filtration using a 24-well sampling manifold and GF/B filters that had been soaked in wash buffer at 4° C. for at least 24 h.
# Each reaction tube was washed six times with a 1.2 ml aliquot of wash buffer. The filters were oven-dried for 60 min and then placed in 5 ml of scintillation fluid. Radioactivity was quantified by liquid scintillation spectrometry.
# Specific binding was defined as the difference between the binding that occurred in the presence and absence of 1 μM unlabelled CP55940.
# Values are expressed as means and variability as s.e.mean or as 95% confidence limits.
# T1 sequence (P47746 whole entry): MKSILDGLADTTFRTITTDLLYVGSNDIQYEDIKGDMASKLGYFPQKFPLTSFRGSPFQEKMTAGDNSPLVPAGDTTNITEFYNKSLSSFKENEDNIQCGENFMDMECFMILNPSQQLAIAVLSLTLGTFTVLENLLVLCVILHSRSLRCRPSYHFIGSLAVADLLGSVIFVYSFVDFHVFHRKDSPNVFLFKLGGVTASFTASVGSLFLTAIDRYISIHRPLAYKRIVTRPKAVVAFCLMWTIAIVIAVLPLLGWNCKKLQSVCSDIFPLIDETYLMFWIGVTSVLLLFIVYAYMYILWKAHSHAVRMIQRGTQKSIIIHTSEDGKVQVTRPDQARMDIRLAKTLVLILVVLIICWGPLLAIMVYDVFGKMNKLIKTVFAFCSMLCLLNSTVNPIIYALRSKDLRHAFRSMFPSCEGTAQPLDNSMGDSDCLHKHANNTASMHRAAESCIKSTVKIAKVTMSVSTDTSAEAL
compound,measurement,setting,value
"C=C(C)[C@@H]1CCC(C)=C[C@H]1c1c(O)cc(CCCCC)cc1O [CBD, cannabidiol]",inhibitory effect on [35S]GTPγS binding compared with SR141716A,"CB1 receptor [1]; 10 μM, both compounds, mouse brain membrane",greatly exceeded that of SR141716A
same,inhibition of [35S]GTPγS binding to the mouse brain membrane,CB1 receptor [1]; compound alone at 1 and 10 μM,significant inhibition
same,KB-value times less than Ki-value,hCB2 receptors,65 times
Cc1c(C(=O)NN2CCCCC2)nn(-c2ccc(Cl)cc2Cl)c1-c1ccc(Cl)cc1 [SR141716A],depression in patients enrolled in the trials,[2],significant increase in depression
"CCCc1cc(O)c2c(c1)OC(C)(C)[C@@H]1CCC(C)=C[C@@H]21 [THCV, tetrahydrocannabidivarin]",effect by itself on the amplitude of the electrically-evoked contractions,vas deferens,did not affect
same,effect by itself on the ability of [35S]GTPγS to bind,"CB1 receptor [1]; mouse brain membranes, at concentrations that antagonise cannabinoids",did not affect
same,effect by itself on the ability of [35S]GTPγS to bind,"hCB2 receptors; CHO-hCB2 cell membranes, at concentrations that antagonise cannabinoids",did not affect
CCCCCCC(C)(C)c1ccc([C@@H]2C[C@H](O)CC[C@H]2CCCO)c(O)c1 [[^3H]CP55940],Kd,CB1 receptor [3],2.31 nM
SR144528 [reference compound],KB-value times less than Ki-value,hCB2 receptors,15 times
